From article PMC4912613, “A broad analysis of resistance development in the malaria parasite” (Nature Communications, 2016)
Like-named read-outs stand apart in the source and are kept apart here.

Tests used:
[1] = tested on: ATQ-R4 (cytb M133I and L144S, parent 3D7); test: Cross-resistance EC50 assay, ATQ-R4; format: cell-based, Plasmodium falciparum; settings: Plasmodium falciparum, 3D7; SYBR green 72 hour assay; asynchronized parasites; 96-well or 1536-well format; ATQ-R4
From the text: (§1) To evaluate potential overlapping activity against known antimalarial drug targets, we performed dose-response studies with each compound against our assembled set of drug-resistant lines and their corresponding parents, in an asexual blood stage proliferation assay (Table 1). Comparisons were made to the drug-sensitive strain 3D7 when a parent was unavailable (TM90C2A, W2 and Dd2). As laboratories conducted EC50 assays with different strains and protocols, all comparisons were made between assays from the same laboratory and under the same assay conditions. Compounds displaying >5-fold EC50 shifts relative to the parent or sensitive strain were flagged as having potentially non-novel targets. Average fold shifts per strain ranged from 0.82 to 2.34, with a median of 1.23 indicating there was not common resistance to any one resistant clone. No resistance patterns were observed when classifying the compounds based on chemical structure, but this was not surprising given the diversity of compounds chosen. On the other hand, given that these confirmed compounds were derived from larger unconfirmed hit lists to which some filtration criteria may have been applied (for example, elimination of obvious dihydrofolate reductase inhibitors[32]), some[10][11][12][13] pre-existing bias may exist in the set. […]
(§2) Alternatively, a SYBR Green-based proliferation approach was used for the 72-h assay, as previously described. Briefly, a culture of either synchronized or asynchronous parasitized RBCs (0.3% parasitemia and 4% haematocrit) in screening medium (identical to supplemented medium above except no serum was added) was exposed to serial drug dilutions. Plates were incubated at 37 °C and gassed with 93% N2, 4% CO2 and 3% O2 for 72 h. Following incubation, 10 × SYBR Green I (Invitrogen; supplied in 10,000 × concentration) in lysis buffer ([…], 5 mM EDTA, 0.16% Saponin wt per vol and 1.6% Triton X vol per vol) was added to the wells and the plates were incubated overnight at room temperature before plate reading. EC50 assays were repeated three times, taking the average EC50 value from each assay set, and removing any outliers using a single iteration of Grubbs' test, eliminating values with z-scores above the critical z-value (α=0.05). The raw EC50 values for synchronized parasites assayed in a 384-well format are listed in Supplementary Data 4. The raw EC50 values for asynchronous parasites assayed in a 96 or 1536-well format are listed in Supplementary Data 5.
(§3) EC50 values for each strain were compared with those of the corresponding parent strain to determine fold-shift changes and identify resistance. To minimize the cause variance between assays, all comparisons were conducted between strains assayed under identical conditions. A one-way ANOVA followed by a Dunnet's post-test was conducted in GraphPad Prism to identify significant changes between the parent and resistant strain.

3D7 = test: Cross-resistance EC50 assay, 3D7 parent / sensitive strain; format: cell-based; settings: Plasmodium falciparum
From the text: Multidrug resistance alleles, including mutations in P. falciparum chloroquine resistance transporter (pfcrt) and P. falciparum multi-drug resistance transporter 1 (pfmdr1) are very common in field isolates. Therefore, we sought to assess the degree to which pre-existing resistance alleles would contribute to a loss of potency for this diverse collection of small molecule compounds. Fifteen clones derived from three main parent lines were chosen to maximize diversity in mutated pathways and genetic backgrounds, thus representing the variety of resistance seen in the field: 3D7 (ref. [23]), W2 (ref. [24]) or Dd2 (ref. [25]). The 3D7 line originates from the clone of a Netherlands clinical isolate strain[23][26] and is generally considered to be drug sensitive, though it does convey resistance to sulfadoxine. Conversely, W2 (ref. [24], [27]) and Dd2 (ref. [25]) are multi-drug-resistant lines originating from the Indochina III/CDC isolate, which contain point mutations in pfcrt as well as amplifications in pfmdr1 and GTP cyclohydrolase.
To evaluate potential overlapping activity against known antimalarial drug targets, we performed dose-response studies with each compound against our assembled set of drug-resistant lines and their corresponding parents, in an asexual blood stage proliferation assay (Table 1). Comparisons were made to the drug-sensitive strain 3D7 when a parent was unavailable (TM90C2A, W2 and Dd2). As laboratories conducted EC50 assays with different strains and protocols, all comparisons were made between assays from the same laboratory and under the same assay conditions. Compounds displaying >5-fold EC50 shifts relative to the parent or sensitive strain were flagged as having potentially non-novel targets. Average fold shifts per strain ranged from 0.82 to 2.34, with a median of 1.23 indicating there was not common resistance to any one resistant clone. No resistance patterns were observed when classifying the compounds based on chemical structure, but this was not surprising given the diversity of compounds chosen. On the other hand, given that these confirmed compounds were derived from larger unconfirmed hit lists to which some filtration criteria may have been applied (for example, elimination of obvious dihydrofolate reductase inhibitors[32]), some[10][11][12][13] pre-existing bias may exist in the set.
The 48-h assay was carried out in a 96-well format following standard methods using the ^3H-hypoxanthine incorporation assay. The raw EC50 values corresponding to this assay can be found in Supplementary Data 3. Briefly, this assay relies on the parasite incorporation of labelled hypoxanthine that is proportional to P. falciparum growth. A culture of parasitized RBCs (0.5% parasitemia with a percentage of ring stage higher than 70% of total parasitemia, 2.0% haematocrit) in RPMI-1640, […] and 5 μM hypoxanthine was exposed to drug serial dilutions. Plates were incubated for 24 h at 37 °C, 5% CO2, 5% O2 and 90% N2. After 24 h of incubation, ^3H-hypoxanthine was added and plates were incubated for an additional 24-h period. After that, parasites were harvested on a glass fibre filter using a TOMTEC Cell Harvester 96. Filters were dried and melt-on scintillator sheets were used to determine the incorporation of ^3H-hypoxanthine. Radioactivity was measured using a microbeta counter. Data were normalized using the incorporation of the positive (parasitized RBCs without drug) and negative (same culture with artesunate at 2 μM) controls. All assays were conducted in triplicate using three independently grown cultures, and EC50 values were determined using the XLfit add-in module for Excel (version 2.3.1) from Grafit (version 5.3.1.3), where parameter h is the assay hill slope, x is the compound concentration and y is the inhibition of growth effect. The XLfit equation is: […]
Alternatively, a SYBR Green-based proliferation approach was used for the 72-h assay, as previously described. […]

[2] = tested on: NITD609-R2 (PfATP4 T418N and P990R, parent Dd2); test: Cross-resistance EC50 assay, NITD609-R2; format: cell-based; settings: Plasmodium falciparum, SYBR green 72 hour assay, asynchronized parasites, 96-well or 1536-well format
From the text: as §1, §2, §3

[3] = SYBR green 72 hour assay, asynchronized parasites, 96-well or 1536-well format, 3D7 parent, read-out: 3D7 (PARENT) EC50 (µM) Average EC50
[4] = SYBR green 72 hour assay, synchronized parasites, 384-well format, strain 3D7 (parent), read-out: 3D7 (PARENT) Average EC50
[5] = hypoxanthine 48-hour assay, synchronized parasites, 96-well format, strain 3D7 (parent), read-out: 3D7 (PARENT) Average EC50
[6] = hypoxanthine 48-hour assay, synchronized parasites, 96-well format, strain 3D7-C9-WT (parent of PfATP4 Mut3), read-out: 3D7-C9-WT (PARENT) Average EC50

In the case of COc1ccc(NC(=O)N2CCCCN3[C@H](CN)[C@H](c4ccc(C#Cc5ccccc5)cc4)[C@@H]3C2)cc1 [BRD1095], the EC50 [1] is reported as 0.003 µM, the EC50 (3D7; [3]) is reported as 0.00215 µM and the EC50 (3D7; SYBR green 72 hour assay, synchronized parasites, 384-well format, 3D7 parent, read-out: 3D7 (PARENT) Average EC50) is reported as 0.022 µM. The EC50 [2] was 0.001 µM.
CCN(CC)CCn1c(=N)n(CC(O)c2ccc(Cl)c(Cl)c2)c2ccccc21.Cl (stereo not drawn) [MMV000248] was tested, and the EC50 [1] was 0.177 µM, the EC50 (3D7; [3]) was 0.138 µM and the EC50 (3D7; [4]) was 0.236 µM. The EC50 (3D7; [5]) was 0.308 µM, the EC50 (3D7; [6]) was 0.399 µM and the EC50 [2] was 0.252 µM.
CCOc1cc2c(cc1OCC)C(c1cc(Cl)ccc1O)NCC2 (stereo not drawn) [MMV000478] gave an EC50 [1] of 0.833 µM, an EC50 (3D7; [3]) of 0.613 µM and an EC50 (3D7; [4]) of 1.85 µM. For the same molecule, the EC50 (3D7; [5]) was 1.07 µM, the EC50 (3D7; [6]) was 1.28 µM and the EC50 [2] was 0.661 µM.
Molecule CCCOCc1cc(CN2CCN(c3cccc(Cl)c3)CC2)c(O)c2ncccc12 [MMV000787] has an EC50 [1] of 1.44 µM, an EC50 (3D7; [3]) of 0.645 µM and an EC50 (3D7; [4]) of 0.631 µM. It also gave an EC50 (3D7; [5]) of 1.46 µM, an EC50 (3D7; [6]) of 0.935 µM and an EC50 [2] of 1.25 µM.
CN1CCN(c2ccc(Nc3c4ccccc4nc4ccccc34)cc2)CC1 [MMV006172] showed an EC50 [1] of 0.217 µM, an EC50 (3D7; [3]) of 0.126 µM and an EC50 (3D7; [4]) of 0.046 µM. For the same molecule, the EC50 (3D7; [5]) was 0.089 µM, the EC50 (3D7; [6]) was 0.097 µM and the EC50 [2] was 0.242 µM.
Work on CCCN(CCC)CC(O)COc1ccccc1C(=O)Nc1ccccc1 (stereo not drawn) [MMV006455] yielded an EC50 [1] of 0.674 µM, an EC50 (3D7; [3]) of 0.148 µM and an EC50 (3D7; [4]) of 2.43 µM. For the same molecule, the EC50 (3D7; [5]) was 0.529 µM and the EC50 [2] was 0.258 µM.
COc1cc2cc(C(=O)Nc3ccccc3)c(N)nc2cc1OC [MMV006767] was tested, and the EC50 [1] was 2.73 µM, the EC50 (3D7; [3]) was 1.51 µM and the EC50 (3D7; [4]) was 0.762 µM. For the same molecule, the EC50 (3D7; [5]) was 0.957 µM, the EC50 (3D7; [6]) was 0.74 µM and the EC50 [2] was 0.106 µM.
Molecule Cc1cc(Nc2ccc(OCc3ccccc3)cc2)nc2cc(O)ccc12 [MMV007181] has an EC50 [1] of 0.109 µM, an EC50 (3D7; [3]) of 0.086 µM and an EC50 (3D7; [4]) of 0.15 µM. It also gave an EC50 (3D7; [5]) of 0.343 µM, an EC50 (3D7; [6]) of 0.183 µM and an EC50 [2] of 0.128 µM.
In the case of Brc1ccc(Nc2nc3ccccc3nc2Nc2ccc(Br)cc2)cc1 [MMV007224], the EC50 [1] is reported as 0.766 µM, the EC50 (3D7; [3]) is reported as 0.709 µM and the EC50 (3D7; [4]) is reported as 0.367 µM. The EC50 (3D7; [5]) was 0.284 µM, the EC50 (3D7; [6]) was 0.398 µM and the EC50 [2] was 0.754 µM.
For Cc1ccc(Cn2c(N3CCC(C(=O)NCc4cccs4)CC3)nc3ccccc32)cc1 [MMV007564], the EC50 [1] was 1.05 µM, the EC50 (3D7; [3]) was 0.867 µM and the EC50 (3D7; [4]) was 0.681 µM. It also gave an EC50 (3D7; [5]) of 0.578 µM, an EC50 (3D7; [6]) of 0.477 µM and an EC50 [2] of 0.705 µM.
